Assay results published in patent US20070207198A1, “Use Of N-Acety1-D-Glucosamine In The Manufacture Of Medicaments For Anti-Tumors And Anti-Metastasis” (Beijing Sino-Hong Kong Dafu Science & Technology of Biowave …, priority 2003, published 2007).

Tests used:
[1] = in vivo
Source text: 1. Acute toxicity test: including tests of administrating medicine orally, intravenous injection and maximum limit amount for administration;

Proteus Mirabilis = experiment: Promoting wave test (bio-wave model); assay type: cell-based; details: final concentration 0.5% on LB plate, 37° C.
Source text: 2. Experimental results and evaluation: • The experiment adopted a bio-wave model for studying the promoting wave function of the compound of formula (I).

B16 cells = experiment: Sole-injected B16 tumor growth in mice; assay type: in vivo, Kunming mice and Balbc mice; set-up: Diameter of tumor: unit not given here; details: for Diameter of tumor: 10% aqueous solution i.p.
Description: 1.1 Animals Kunming mice, Scad male mice
1.2 Tumor cells: B16 cells, PG cells and Biu cells, which were presented by from the Staff Room of Pathology of the present university and the Tumor Department of the Second Affiliated Hospital, respectively.
1.3 Methods: soles of Kunming mice and Balbc mice were injected with B16 cell suspension, and these mice were intraperitoneally injected with 10% aqueous solution of the compound of formula (I) at 0th, 4th and 7th day after B16 cells were injected.

[2] = Typical case: breast cancer patient, metastasis after operation; assay type: in vivo, human; details: injection 15 g/60 kg/day before and for a week after the operation; within one year after the operation
Source text: Chen, female, was accepted by the Department of Surgery of Chuanxinan Mining Area Hospital for suffering with breast cancer. The chief physician, Chen Qi, considered the high metastasis rate after operation, administrated Chen via injected with the compound of formula (I) in a dose of 15 g/60 kg/day before the operation and for a continuous week after the operation.

## CC(=O)N[C@@H]1[C@@H](O)[C@H](O)[C@@H](CO)O[C@H]1O [compound of formula (I), N-acetyl-D-glucosamine]
[1]
  acute dosage relative to the injection dosage for human being: 300 times
  dosage at which the acute toxicosis reaction had not appeared: more than 2 g/kg
Proteus Mirabilis
  promoting wave function (ring pattern compared with control): many fine waves on each ring emerged
B16 cells; Group I (administered immediately), observation time 3
  Diameter of tumor: 0
B16 cells; Group I (administered immediately), observation time 7
  Diameter of tumor: 0.11
B16 cells; Group I (administered immediately), observation time 14
  Diameter of tumor: 0.18
B16 cells; Group I (administered immediately), observation time 21
  Diameter of tumor: 0.21
B16 cells; Group I (administered immediately), observation time 28
  Diameter of tumor: 0.15
B16 cells; Group II (administered at the 4th day), observation time 3
  Diameter of tumor: 0.05
B16 cells; Group II (administered at the 4th day), observation time 7
  Diameter of tumor: 0.12
B16 cells; Group II (administered at the 4th day), observation time 14
  Diameter of tumor: 0.43
B16 cells; Group II (administered at the 4th day), observation time 21
  Diameter of tumor: 0.58
B16 cells; Group II (administered at the 4th day), observation time 28
  Diameter of tumor: 0.72
B16 cells; Group III (administered at the 7th day), observation time 3
  Diameter of tumor: 0.1
B16 cells; Group III (administered at the 7th day), observation time 7
  Diameter of tumor: 0.21
B16 cells; Group III (administered at the 7th day), observation time 14
  Diameter of tumor: 0.60
B16 cells; Group III (administered at the 7th day), observation time 21
  Diameter of tumor: 1.10
B16 cells; Group III (administered at the 7th day), observation time 28
  Diameter of tumor: 1.38
B16 cells; high concentration intraperitoneally injected, B16 cells
  growth of tumor: inhibited
[2]
  metastasis after operation: no metastasis occurred
